Earlier results as cited in US4065616A, “Processes for production of a 1-N-(α-hydroxy-.PHI.-amino alkanoyl)-3-deoxy-5-O-pentafuranosyl neamine and new compounds produced by the same processes” (Zaidan Hojin Biseibutsu Kagaku Kenkyu Kai, priority 1975, dated 1977).

Test system: kanamycin-resistant bacteria
Details: in words, prior work; cited from earlier work

| Compound | antibacterial activity against resistant bacteria |
| --- | --- |
| NCCC(O)C(=O)N[C@@H]1C[C@H](N)[C@@H](O[C@H]2O[C@H](CN)CC[C@H]2N)[C@H](O)[C@H]1O[C@H]1O[C@H](CO)[C@@H](O)[C@H](N)[C@H]1O (some centres unmarked) [1-N-(4-amino-2-hydroxybutyryl)-DKB] | active against the kanamycin-resistant bacteria |
| NCCC(O)C(=O)N[C@@H]1C[C@H](N)[C@@H](O[C@H]2O[C@H](CN)[C@@H](O)[C@H](O)[C@H]2O)[C@H](O)[C@H]1O[C@H]1O[C@H](CO)[C@@H](O)[C@H](N)[C@H]1O (some centres unmarked) [1-N-(4-amino-2-hydroxybutyryl)-kanamycin] | active against the kanamycin-resistant bacteria |
| NCC(O)C(=O)N[C@@H]1C[C@H](N)[C@@H](O[C@H]2O[C@H](CN)CC[C@H]2N)[C@H](O)[C@H]1O[C@H]1O[C@H](CO)[C@@H](O)[C@H](N)[C@H]1O (some centres unmarked) [1-N-isoseryl-DKB] | active against the kanamycin-resistant bacteria |
| NCC(O)C(=O)N[C@@H]1C[C@H](N)[C@@H](O[C@H]2O[C@H](CN)[C@@H](O)[C@H](O)[C@H]2N)[C@H](O)[C@H]1O[C@H]1O[C@H](CO)[C@@H](O)[C@H](N)[C@H]1O (some centres unmarked) [1-N-isoserylkanamycin B] | active against the kanamycin-resistant bacteria |
| NCC(O)C(=O)N[C@@H]1C[C@H](N)[C@@H](O[C@H]2O[C@H](CN)[C@@H](O)[C@H](O)[C@H]2O)[C@H](O)[C@H]1O[C@H]1O[C@H](CO)[C@@H](O)[C@H](N)[C@H]1O (some centres unmarked) [1-N-isoserylkanamycin] | active against the kanamycin-resistant bacteria |
